Entries after “also recorded” stand apart in the source; their conditions may differ.
Key:
[1] = test system: mouse anti-HPV16 E7 mAb ED17; experiment: Dot immunoassay with anti-HPV16 E7 mAb ED17; format: binding; settings: for Linear determinant recognized by mAb ED17 (epitope mapping): dot immunoassays using 6-mer peptides offset by one residue; for Binding to mAb ED17 in dot immunoassay: 15-mer peptide spotted on membrane, primary antibody 1:500
Procedure: The peptides corresponding to the three peptide sequences were synthetized and used as antigens in dot immunoassay experiments with MAb-ED17, a mouse monoclonal IgG, raised to the full length E7 oncoprotein. Peptide purity was controlled by analytical HPLC, and the molecular mass of purified peptides confirmed by fast atomic bombardment mass spectrometry. Peptides were dissolved in 0.9% NaCl, aliquoted and stored at −20° C.
Nitrocellulose membranes (Nytran […] pore size, Schleicher & Schüll) were pretreated for 1 min in 4% BSA (bovine serum albumin)/10 mM Tris-HCl, pH 7.5/150 mM NaCl, followed by 10 min activation with 2.5% glutaraldehyde. Peptides (5 Φg) were spotted on the activated membrane, left to dry for 1 hr at room temperature, and probed in phosphate-buffered saline (PBS) containing 4% BSA, 0.1% (v/v) Tween 20, and the primary antibody (1:500). Primary antibody was mouse anti-HPV16 E7 monoclonal IgG1 raised to amino acids 1-98 representing full length E7 (ED17, cat # sc-6981, Santa Cruz Biotechnology, Inc., Santa Cruz, Calif.). Following a 1 h incubation at room temperature, the membrane was washed three times for 10 mins with PBS containing 4% BSA, 0.1% Tween-20 and incubated with horseradish peroxidase-conjugated affinity-purified sheep anti-mouse IgG for 1 h (1:2500; Santa Cruz Biotechnology). Membrane was washed in PBS (4 times for 5 mins), and immunoblots were developed using the enhanced chemiluminescence detection assay (ECL Western blotting analysis system, Amersham Pharmacia Biotech, Milan, Italy).
The identification of the H2-E^k presented HPV 16 E7 epitope was further ananyzed by epitope mapping. Dot immunoassays by using 6-mer peptides offset by one amino acid residue confirmed that the anti-E7 mAb recognized the linear determinant HPV 16 E52-61 YNIVTFCCKC (SEQ ID NO:108) present in the 15-mer peptide RAHYNIVTFCCKCDS (SEQ ID NO:61), having the highest binding potential to the mouse MHC II molecule, and a low degree of similarity to host proteins.
Four peptides were analyzed for epitopic determinants in dot immunoassay tests: E725-39 YEQLNDSSEEEDEID (control; SEQ ID NO:76); E784-98 MGTLGIVCPICSQKP (SEQ ID NO:71); E72-16 HGDTPTLHEYMLDLQ (SEQ ID No:69); E749-63 RAHYNIVTFCCKCDS (SEQ ID NO:61); and E732-46 SEEEDEIDGPAGQAE (SEQ ID NO:39). […] As expected, high similarity peptide E732-46 SEEEDEIDGPAGQAE (SEQ ID NO:39) was not reactive (FIG. 1, peptide 5).
E749-63 RAHYNIVTFCCKCDS (SEQ ID NO:61) was further analyzed by epitope mapping.

[2] = test system: HPV-transformed tumor cells; settings: mice; cited from earlier work
[3] = test system: MAb-ED17; experiment: NMR spectra confirming epitope screening; format: binding, mouse
Source text: To confirm the epitope screening results, NMR spectra were obtained that confirmed the high affinity of MAb-ED17 towards the predicted epitopic peptide RAHYNIVTFCCKCDS (SEQ ID NO:61).

AHYNIVTFCCKC
Linear determinant recognized by mAb ED17 (epitope mapping) [1]: recognized

HGDTPTLHEYMLDLQ (listed as Human papillomavirus)
Binding to mAb ED17 in dot immunoassay [1]: not recognized; also recorded: No immune reaction

HPV E744-62 peptide: polypeptide comprising amino acids 44-62 of HPV E7 protein (QAEPDRAHYNIVTFCCKCD; UniProt P03129 44-62, looked up, fragment)
Prevention of outgrowth of HPV-transformed tumor cells [2]: effective for preventing outgrowth

MGTLGIVCPICSQKP (listed as Human papillomavirus)
Binding to mAb ED17 in dot immunoassay [1]: not recognized

RAHYNIVTFCCKCDS (listed as Human papillomavirus)
Affinity of MAb-ED17 towards peptide by NMR spectra [3]: high affinity | Binding to mAb ED17 in dot immunoassay [1]: Significant binding; also recorded: significant signal

SEEEDEIDGPAGQAE (listed as Human papillomavirus)
Binding to mAb ED17 in dot immunoassay [1]: not reactive

YEQLNDSSEEEDEID (listed as Human papillomavirus)
Binding to mAb ED17 in dot immunoassay [1]: no binding

YNIVTFCCKC (listed as Human papillomavirus)
Linear determinant recognized by mAb ED17 (epitope mapping) [1]: recognized
